Measured values taken from patent publication US20020091144A1, “Treatment of apoptotic cell death” (Johns Hopkins University, priority 2000, published 2002).
Each block holds one compound with its values, some of them ahead of it.

Assays:
[1] = system: Neonatal rat cardiac myocytes; assay: Mitochondrial membrane potential, JC-1 flow cytometry, cardiac myocytes; assay type: cell-based
Description: The effects of mitoKATP channel activation by flow cytometry (FIGS. 2F-J) were further quantified. Incubation with 200 μM H2O2 for 2 h decreased the red fluorescence and shifted the distribution curve leftward. […] To confirm the central role of mitoKATP channels, we examined another mitoKATP channel opener, pinacidil.
(§1) Cytoprotective effects of diazoxide in neurons also was evaluated. […] Staining was conducted as follows: loss of mitochondrial membrane potential (ΨΔ) was assessed using either a laser scanning confocal microscope or flow cytometry analysis of cells stained with 5,5′,6,6′-tetrachloro-1,1′,3,3′-tetraethylbenzimidazolecarbocyanide iodine (JC-1, Molecular Probes). Cells were incubated with 2 μg/mL JC-1 for 10 min in 37° C. After washing the dye, cells on dishes were scanned with a confocal microscope at 10x magnification. The dye was excited by the 488 nm line of an argon laser, and the 543 nm line of a helium/neon laser. The red emission of the dye is due to a potential-dependent aggregation in the mitochondria, reflecting ΨΔ. Green fluorescence reflects the monomeric form of JC-1, occuring in the cytosol after mitochondrial membrane depolarization. The fluorescence intensity of the field was measured using integrated image analysis software (Simple32; Compix, Inc.), which was programmed to automatically detect all areas of red or green fluorescence above background. The data are plotted as mean values of arbitrary units of fluorescence intensity. For flow cytometry analysis, cells were harvested by trypsinization after loading of the dye, and analyzed by FACScan (10,000 cells/sample). The excitation wavelength was 488 nm, and the emission fluorescence for JC-1 was monitored at 530 (FL-1) and 582 nm (FL-2). The flow cytometry data are analyzed using Cell Quest (Becton Dickinson, Immunocytometry Systems).

[2] = system: Neonatal rat cardiac myocytes; assay: TUNEL staining of H2O2-induced apoptosis; assay type: cell-based
Description: (§2) Neonatal rat cardiac myocytes in primary culture were randomly assigned to one of four experimental groups: 1) control group, 2) incubation with 200 μM H2O2, 3) 100 μM diazoxide, applied together with 200 μM H2O2, 4) 100 μM diazoxide and 500 μM 5-HD, applied together with 200 μM H2O2. […] Staining was conducted as follows. TUNEL staining was performed according to the manufacturer's protocol (Roche Molecular Biochemicals). Fluorescein labels incorporated in nucleotide polymers were detected by laser scanning confocal microscopy at excitation wavelength of 488 rim (argon laser). […] Necrotic cells had been excluded from these specimens since they became non-adherent and were removed when the medium was decanted and the cell layers were washed in PBS.

[3] = system: cytochrome c; assay: Cytochrome c immunofluorescence (translocation to cytosol); assay type: cell-based, rat
Description: as §2, with “PBS. […] This effect was blocked by the mitoKATP channel antagonist 5-HD (FIG. 1D). […] That immunofluorescence was conducted as follows: cells were plated on glass coverslips, treated with drugs as indicated, fixed in ice-cold 1:1 mixture of methanol/acetone, blocked with 10% normal goat serum and 0.075% saponin in PBS, and incubated with primary antibody dissolved in blocking solution at a dilution of 1:100. […] These coverslips were mounted with antifading fluorescence mounting medium and were examined by a laser scanning confocal microscope (Zeiss, LSM 410), using 40x water-immersion lens and 2x optical zoom. […]” for “PBS.”

[4] = system: caspase-3; assay: Activated caspase-3 immunofluorescent staining; assay type: cell-based, rat
Description: as §2, with “PBS. […] This effect was blocked by the mitoKATP channel antagonist 5-HD (FIG. 1D). […] That immunofluorescence was conducted as follows: cells were plated on glass coverslips, treated with drugs as indicated, fixed in ice-cold 1:1 mixture of methanol/acetone, blocked with 10% normal goat serum and 0.075% saponin in PBS, and incubated with primary antibody dissolved in blocking solution at a dilution of 1:100. […] These coverslips were mounted with antifading fluorescence mounting medium and were examined by a laser scanning confocal microscope (Zeiss, LSM 410), using 40x water-immersion lens and 2x optical zoom. […]” for “PBS.”

[5] = system: caspase-7; assay: Activated caspase-7 immunofluorescent staining; assay type: cell-based, rat
Description: as §2, with “PBS. […] This effect was blocked by the mitoKATP channel antagonist 5-HD (FIG. 1D). […] That immunofluorescence was conducted as follows: cells were plated on glass coverslips, treated with drugs as indicated, fixed in ice-cold 1:1 mixture of methanol/acetone, blocked with 10% normal goat serum and 0.075% saponin in PBS, and incubated with primary antibody dissolved in blocking solution at a dilution of 1:100. […] These coverslips were mounted with antifading fluorescence mounting medium and were examined by a laser scanning confocal microscope (Zeiss, LSM 410), using 40x water-immersion lens and 2x optical zoom. […]” for “PBS.”

[6] = system: poly(ADP-ribose) polymerase (PARP); assay: Cleaved PARP immunofluorescent staining; assay type: cell-based, rat
Description: as §2, with “PBS. […] This effect was blocked by the mitoKATP channel antagonist 5-HD (FIG. 1D). […] That immunofluorescence was conducted as follows: cells were plated on glass coverslips, treated with drugs as indicated, fixed in ice-cold 1:1 mixture of methanol/acetone, blocked with 10% normal goat serum and 0.075% saponin in PBS, and incubated with primary antibody dissolved in blocking solution at a dilution of 1:100. […] These coverslips were mounted with antifading fluorescence mounting medium and were examined by a laser scanning confocal microscope (Zeiss, LSM 410), using 40x water-immersion lens and 2x optical zoom. […]” for “PBS.”

[7] = system: PARP holoenzyme; assay: Immunoblot of PARP holoenzyme; assay type: cell-based, rat
Description: (U) Immunoblot of PARP in neonatal rat cardiac myocytes. Cell lysates from each experimental group were subjected to immunoblot analysis (30 μg protein/lane) with monoclonal antibody against 117-kDa PARP holoenzyme. Cells were treated for either 8 h or 16 hours. To confirm these findings using complementary methods, we examined PARP protein levels as a biochemical indicator of the activation of downstream caspases in each group.

[8] = system: Neonatal rat cardiac myocytes; assay: Mitochondrial membrane potential, JC-1 confocal image analysis, cardiac myocytes; assay type: cell-based
Description: Redistribution of cytochrome c has been linked to the loss of mitochondrial membrane potential (ΨΔ) and the opening of the mitochondrial permeability transition pore (23). We assessed ΨΔ in H2O2-stimulated myocytes using a fluorescent probe, JC-1 (24). […] Cells exposed to 200 μM H2O2 for 2 h lose punctate red staining (FIG. 2B), in favor of a diffuse green cytosolic signal indicative of the loss of ΨΔ. […] The protective effect of diazoxide is blocked by 500 μM 5-HD (FIG. 2D). These observations were rendered quantitative by automated image analysis (24). FIG. 2E summarizes the red fluorescence, an indicator of ΨΔ.
as §1

[9] = system: rat cerebellar granule neurons; assay: Mitochondrial membrane potential, JC-1 staining, cerebellar granule neurons; assay type: cell-based
Description: as §1, with “The red emission of the dye is due to a potential-dependent aggregation in the mitochondria, reflecting ΨΔ.” left out, “The flow cytometry data are analyzed using Cell Quest (Becton Dickinson, Immunocytometry Systems).” left out

[10] = system: mitoKATP channel; details: intact heart cells; read-out: value for mitoKATP channel activation; cited from earlier work
[11] = 100 μM diazoxide with 200 μM H2O2
[12] = 500 μM 5-HD + 100 μM diazoxide + 200 μM H2O2

SMILES: CC(N/C(=N\C#N)Nc1ccncc1)C(C)(C)C (stereo not shown) [pinacidil]
restoring the loss of ΨΔ induced by H2O2 ([1]; 100 μM pinacidil, 200 μM H2O2): equi-effective to diazoxide

H2O2-induced PARP cleavage [6, 11]: inhibited the H2O2-induced PARP cleavage
loss of 117-kDa PARP holoenzyme band ([7]; diazoxide with H2O2, 8 h or 16 hours): attenuates the loss of PARP holoenzyme
EC50 ([8]; Rattus norvegicus, 200 μM H2O2 for 2 h, red fluorescence, automated image analysis, read-out: EC50 for prevention of loss of ΨΔ): 40 µM
SMILES: CC1=NS(=O)(=O)c2cc(Cl)ccc2N1 [diazoxide]
H2O2-induced TUNEL positive nuclei ([2]; 100 μM diazoxide with 200 μM H2O2, 16 h): decreased the frequency of H2O2-induced TUNEL positive nuclei
H2O2-induced cytochrome c translocation to the cytoplasm ([3]; 100 μM diazoxide with 200 μM H2O2, 16 hours): inhibited the translocation of cytochrome c
H2O2-induced activation of caspase-3 [4, 11]: inhibited the H2O2-induced activation of caspase-3
H2O2-induced activation of caspase-7 [5, 11]: inhibited H2O2-induced activation of caspase-7
H2O2-induced loss of mitochondrial membrane potential (ΨΔ), JC-1 red staining ([8]; 100 μM diazoxide, 200 μM H2O2 for 2 h, confocal images): protects against H2O2-induced loss of mitochondrial integrity
loss of ΨΔ, red fluorescence by automated image analysis ([8]; diazoxide 20-200 μM, 200 μM H2O2 for 2 h): prevented loss of ΨΔ in a dose-dependent manner
H2O2-induced dissipation of ΨΔ, red fluorescence distribution ([1]; diazoxide 20, 50, 100 μM, 200 μM H2O2 for 2 h): prevented the H2O2-induced dissipation of ΨΔ in a dose-dependent manner
H2O2-induced loss of ΨΔ in neurons, JC-1 red staining ([9]; 100 μM diazoxide, 100 μM H2O2 for 1 h): protects against H2O2-induced loss of mitochondrial integrity
EC50 [10]: 27 µM

effect on diazoxide inhibition of caspase-3 activation [4, 12]: negated the effect of diazoxide
effect on diazoxide inhibition of PARP cleavage [6, 12]: prevented the diazoxide effect
SMILES: CCCCCC(O)CCCC(=O)O (stereo not shown) [5-HD, 5-hydroxydecanoate]
effect on diazoxide protection against TUNEL positivity ([2]; 500 μM 5-HD + 100 μM diazoxide + 200 μM H2O2, 16 h): blocked
effect on diazoxide inhibition of cytochrome c translocation [3, 12]: abrogated the effect of diazoxide
effect on diazoxide inhibition of caspase-7 activation [5, 12]: abolished the anti-apoptosic effect of diazoxide
effect on diazoxide protection of PARP holoenzyme ([7]; 5-HD + diazoxide + H2O2, 8 h or 16 hours): abolished the protective effect of diazoxide
effect on diazoxide prevention of loss of ΨΔ, automated image analysis ([8]; 500 μM 5-HD + 100 μM diazoxide + 200 μM H2O2 for 2 h): antagonized the salutary effect of diazoxide
effect on diazoxide protection of ΨΔ ([8]; 500 μM 5-HD + 100 μM diazoxide + 200 μM H2O2 for 2 h, confocal images): blocked
effect of 5-HD alone on ΨΔ ([1]; 5-HD 500 μM + H2O2, absence of diazoxide): no effect on ΨΔ
effect on diazoxide protection of ΨΔ, flow cytometry ([1]; 5-HD 500 μM + diazoxide 100 μM + 200 μM H2O2): abolished the effect of diazoxide
effect on diazoxide protection of ΨΔ in neurons ([9]; 500 μM 5-HD + 100 μM diazoxide + 100 μM H2O2 for 1 h): blocked

SMILES: COc1ccc(Cl)cc1C(=O)NCCc1ccc(S(=O)(=O)NC(=O)NC2CCCCC2)cc1 [glibenclamide]
effect of KATP blocker on diazoxide protection of ΨΔ ([1]; glibenclamide 10 μM with diazoxide and H2O2): reversed the salutary effect of diazoxide
